Results reported in patent US20230312578A1, “6H-INDOLO[2,3-B]QUINOXALINE DERIVATIVES USEFUL IN THERAPY” (Vironova Medical AB, priority 2020, published 2023).

Experiments:
Type in all cases: cell-based
[1] = Human tumor cell line growth assay (SRB); conditions: human, IGR-OV1 cells (ovarian), IGR-OV1, 48 h, read-out: LC50
[2] = tested on: IGR-OV1; assay: Human tumor cell line growth assay (SRB); conditions: Homo sapiens, IGROV-1; Ovarian, IGR-OV1, 48 h
[3] = Human tumor cell line growth assay (SRB); conditions: human, HOP-62 cells (NSCLC), HOP-62, 48 h, read-out: LC50
[4] = Human tumor cell line growth assay (SRB); conditions: human, SNB-19 cells (CNS), SNB-19, 48 h, read-out: LC50
[5] = tested on: SNB-19; assay: Human tumor cell line growth assay (SRB); conditions: Homo sapiens; CNS, SNB-19, 48 h
[6] = tested on: RXF 393; assay: Human tumor cell line growth assay (SRB); conditions: Renal, RXF 393, 48 h; for CC50: read-out: LC50 (the source's name)
[7] = tested on: CCRF-CEM; assay: Human tumor cell line growth assay (SRB); conditions: Leukemia, 48 h; for CC50: read-out: LC50 (the source's name)
[8] = tested on: PC-3; assay: Human tumor cell line growth assay (SRB); conditions: Prostate, PC-3, 48 h; for CC50: read-out: LC50 (the source's name)
[9] = tested on: BT-549; assay: Human tumor cell line growth assay (SRB); conditions: Breast, BT-549, 48 h; for CC50: read-out: LC50 (the source's name)
[10] = Human tumor cell line growth assay (SRB); conditions: human, SF-295 cells (CNS), SF-295, 48 h, read-out: LC50
[11] = tested on: SF-295; assay: Human tumor cell line growth assay (SRB); conditions: Homo sapiens; CNS, SF-295, 48 h
[12] = Human tumor cell line growth assay (SRB); conditions: human, MALME-3M cells (melanoma), read-out: LC50
[13] = tested on: MALME-3M; assay: Human tumor cell line growth assay (SRB); conditions: Homo sapiens, Melanoma, 48 h
[14] = Human tumor cell line growth assay (SRB); conditions: human, RPMI-8226 cells (leukemia), RPMI-8226, 48 h, read-out: LC50
[15] = tested on: RPMI-8226; assay: Human tumor cell line growth assay (SRB); conditions: Homo sapiens; Leukemia, RPMI-8226, 48 h
[16] = tested on: UO-31; assay: Human tumor cell line growth assay (SRB); conditions: Renal, UO-31, 48 h; for CC50: read-out: LC50 (the source's name)
[17] = Human tumor cell line growth assay (SRB); conditions: human, OVCAR-4 cells (ovarian), OVCAR-4, 48 h, read-out: LC50
[18] = tested on: OVCAR-4; assay: Human tumor cell line growth assay (SRB); conditions: Homo sapiens; Ovarian, OVCAR-4, 48 h
[19] = Human tumor cell line growth assay (SRB), summary over the panel; conditions: human, human tumor cell line panel (most cell lines of the panel); for most cell lines of the panel; read-out: LC50
[20] = Human tumor cell line growth assay (SRB); conditions: human, SF-268 cells (CNS), SF-268, 48 h
[21] = tested on: SF-268; assay: Human tumor cell line growth assay (SRB); conditions: Homo sapiens; CNS, SF-268, 48 h
[22] = Human tumor cell line growth assay (SRB); conditions: human, M14 cells (melanoma), M14, 48 h, read-out: LC50
[23] = tested on: M14; assay: Human tumor cell line growth assay (SRB); conditions: Homo sapiens; Melanoma, M14, 48 h
[24] = tested on: K-562; assay: Human tumor cell line growth assay (SRB); conditions: K562, Leukemia, K-562, 48 h; for CC50: read-out: LC50 (the source's name)
[25] = tested on: UACC-62; assay: Human tumor cell line growth assay (SRB); conditions: Homo sapiens; Melanoma, UACC-62, 48 h
[26] = Human tumor cell line growth assay (SRB); conditions: human, UACC-62 cells (melanoma), UACC-62, 48 h, read-out: LC50

Q: For Cc1cc2nc3c4cc([N+](=O)[O-])ccc4n(CCN(C)C)c3nc2cc1C [JBA-185, 2-(2,3-dimethyl-9-nitro-6H-indolo[2,3-b]quinoxalin-6-yl)-N,N-dimethylethanamine], which CC50 at 48 h [1] is on record?
A: > 100 µM

Q: What about the GI50 [2] of the same molecule?
A: 357 nM

Q: What about the CC50 at 48 h [3] of the same molecule?
A: > 100 µM

Q: What about the CC50 at 48 h [4] of the same molecule?
A: > 100 µM

Q: What about the GI50 [5] of the same molecule?
A: 493 nM

Q: What about the GI50 [6] of the same molecule?
A: 638 nM

Q: And the CC50 [6]?
A: 5.5 µM

Q: What about the GI50 [7] of the same molecule?
A: 642 nM

Q: What about the CC50 [7] of the same molecule?
A: > 100 µM

Q: And the GI50 [8]?
A: 187 nM

Q: And the CC50 [8]?
A: > 100 µM

Q: What about the GI50 [9] of the same molecule?
A: 1950 nM

Q: What about the CC50 [9] of the same molecule?
A: > 100 µM

Q: And the CC50 at 48 h [10]?
A: 8.64 µM

Q: And the GI50 [11]?
A: 388 nM

Q: What about the CC50 at 48 h [12] of the same molecule?
A: 5.1 µM

Q: What about the GI50 [13] of the same molecule?
A: 542 nM

Q: What about the CC50 at 48 h [14] of the same molecule?
A: > 100 µM

Q: What about the GI50 [15] of the same molecule?
A: 389 nM

Q: And the GI50 [16]?
A: 187 nM

Q: And the CC50 [16]?
A: 21.2 µM

Q: What about the CC50 at 48 h [17] of the same molecule?
A: > 100 µM

Q: And the GI50 [18]?
A: 452 nM

Q: What about the CC50 at 48 h [19] of the same molecule?
A: > 100 µM

Q: And the LC50 (50% lethal concentration) at 48 h [20]?
A: > 100 µM

Q: And the GI50 [21]?
A: 793 nM

Q: What about the CC50 at 48 h [22] of the same molecule?
A: 7.28 µM

Q: And the GI50 [23]?
A: 499 nM

Q: What about the GI50 [24] of the same molecule?
A: 360 nM

Q: What about the CC50 [24] of the same molecule?
A: > 100 µM

Q: What about the GI50 [25] of the same molecule?
A: 514 nM

Q: And the CC50 at 48 h [26]?
A: 5.78 µM

Q: With Cc1cc2nc3c4ccccc4n(CCN(C)C)c3nc2cc1C [B220, 2-(2,3-dimethyl-6H-indolo [2,3-b]quinoxalin-6-yl)-N,N-dimethylethanamine, reference compound] as the molecule, how does the CC50 at 48 h [1] read?
A: 72.4 µM

Q: And the GI50 [2]?
A: 1280 nM

Q: And the CC50 at 48 h [3]?
A: > 100 µM

Q: And the CC50 at 48 h [4]?
A: 68.6 µM

Q: And the GI50 [5]?
A: 2330 nM

Q: What about the GI50 [6] of the same molecule?
A: 1560 nM

Q: What about the CC50 [6] of the same molecule?
A: 12.2 µM

Q: What about the GI50 [7] of the same molecule?
A: 1990 nM

Q: What about the CC50 [7] of the same molecule?
A: > 100 µM

Q: And the GI50 [8]?
A: 2010 nM

Q: And the CC50 [8]?
A: > 100 µM

Q: What about the GI50 [9] of the same molecule?
A: 2070 nM

Q: What about the CC50 [9] of the same molecule?
A: 28.7 µM

Q: What about the CC50 at 48 h [10] of the same molecule?
A: 42.5 µM

Q: And the GI50 [11]?
A: 1390 nM

Q: And the CC50 at 48 h [12]?
A: 53.3 µM

Q: What about the GI50 [13] of the same molecule?
A: 1410 nM

Q: And the GI50 [16]?
A: 726 nM

Q: And the CC50 [16]?
A: 91.3 µM

Q: What about the CC50 at 48 h [17] of the same molecule?
A: > 100 µM

Q: And the GI50 [18]?
A: 2550 nM

Q: What about the LC50 (50% lethal concentration) at 48 h [20] of the same molecule?
A: 28 µM

Q: And the GI50 [21]?
A: 1450 nM

Q: What about the CC50 at 48 h [22] of the same molecule?
A: 75.1 µM

Q: And the GI50 [23]?
A: 1510 nM

Q: What about the GI50 [24] of the same molecule?
A: 1990 nM

Q: And the CC50 [24]?
A: > 100 µM

Q: What about the GI50 [25] of the same molecule?
A: 1430 nM

Q: What about the CC50 at 48 h [26] of the same molecule?
A: 5.58 µM

Q: Which results are given for Cc1cc2nc3c4cc(N)ccc4n(CCN(C)C)c3nc2cc1C [JBD-136, 6-(2-(dimethylamino)ethyl)-2,3-dimethyl-6H-indolo [2,3-b]quinoxalin-9-amine]?
A: CC50 at 48 h [1]: > 100 µM; GI50 [2]: 596 nM; CC50 at 48 h [3]: > 100 µM; CC50 at 48 h [4]: > 100 µM; GI50 [5]: 767 nM; GI50 [6]: 1130 nM; CC50 [6]: 6.4 µM; GI50 [7]: 862 nM; CC50 [7]: 76.9 µM; GI50 [8]: 1280 nM; CC50 [8]: 51.9 µM; GI50 [9]: 1780 nM; CC50 [9]: 27.9 µM; CC50 at 48 h [10]: 33.8 µM; GI50 [11]: 1240 nM; CC50 at 48 h [12]: 7.43 µM; GI50 [13]: 1270 nM; CC50 at 48 h [14]: 95.2 µM; GI50 [15]: 740 nM; GI50 [16]: 332 nM; CC50 [16]: 55.3 µM; CC50 at 48 h [17]: 59 µM; GI50 [18]: 1700 nM; LC50 (50% lethal concentration) at 48 h [20]: 42.7 µM; GI50 [21]: 1570 nM; CC50 at 48 h [22]: 6.43 µM; GI50 [23]: 1120 nM; GI50 [24]: 426 nM; CC50 [24]: 65.6 µM; GI50 [25]: 1180 nM; CC50 at 48 h [26]: 7.99 µM

Q: What does the source list for COc1ccc2c(c1)c1nc3cc(C)c(C)cc3nc1n2CCN(C)C [JBA-094, 2-(9-methoxy-2,3-dimethyl-6H-indolo[2,3-b]quinoxalin-6-yl)-N,N-dimethylethanamine]?
A: CC50 at 48 h [1]: 5.41 µM; GI50 [2]: 396 nM; CC50 at 48 h [3]: > 100 µM; CC50 at 48 h [4]: 6.34 µM; GI50 [5]: 719 nM; GI50 [6]: 1180 nM; CC50 [6]: 6.9 µM; GI50 [7]: 795 nM; CC50 [7]: > 100 µM; GI50 [8]: 1120 nM; CC50 [8]: 5.84 µM; GI50 [9]: 1650 nM; CC50 [9]: 7.09 µM; CC50 at 48 h [10]: 5.13 µM; GI50 [11]: 1110 nM; CC50 at 48 h [12]: 5.77 µM; GI50 [13]: 1110 nM; GI50 [15]: 640 nM; GI50 [16]: 273 nM; CC50 [16]: 4.93 µM; CC50 at 48 h [17]: 5.56 µM; GI50 [18]: 1020 nM; LC50 (50% lethal concentration) at 48 h [20]: 8.23 µM; GI50 [21]: 1330 nM; CC50 at 48 h [22]: 5.89 µM; GI50 [23]: 1120 nM; GI50 [24]: 444 nM; CC50 [24]: > 100 µM; GI50 [25]: 898 nM; CC50 at 48 h [26]: 6.7 µM

Q: Which CC50 at 48 h [1] does the source give for Cc1cc2nc3c4cc(O)ccc4n(CCN(C)C)c3nc2cc1C [JBD-139, 6-(2-(dimethylamino)ethyl)-2,3-dimethyl-6H-indolo [2,3-b]quinoxalin-9-ol] here?
A: 98.2 µM

Q: What about the GI50 [2] of the same molecule?
A: 392 nM

Q: What about the CC50 at 48 h [3] of the same molecule?
A: > 100 µM

Q: What about the CC50 at 48 h [4] of the same molecule?
A: > 100 µM

Q: And the GI50 [5]?
A: 423 nM

Q: What about the GI50 [6] of the same molecule?
A: 671 nM

Q: And the CC50 [6]?
A: 5.96 µM

Q: And the GI50 [7]?
A: 468 nM

Q: And the CC50 [7]?
A: > 100 µM

Q: And the GI50 [8]?
A: 491 nM

Q: And the GI50 [9]?
A: 1840 nM

Q: And the CC50 [9]?
A: > 100 µM

Q: What about the CC50 at 48 h [10] of the same molecule?
A: > 100 µM

Q: What about the GI50 [11] of the same molecule?
A: 756 nM

Q: And the GI50 [13]?
A: 623 nM

Q: And the GI50 [15]?
A: 366 nM

Q: And the GI50 [16]?
A: 1390 nM

Q: And the CC50 [16]?
A: 4.18 µM

Q: And the GI50 [18]?
A: 882 nM

Q: What about the LC50 (50% lethal concentration) at 48 h [20] of the same molecule?
A: > 100 µM

Q: And the GI50 [21]?
A: 822 nM

Q: What about the CC50 at 48 h [22] of the same molecule?
A: 5.15 µM

Q: What about the GI50 [23] of the same molecule?
A: 378 nM

Q: And the GI50 [24]?
A: 338 nM

Q: What about the CC50 [24] of the same molecule?
A: > 100 µM

Q: What about the GI50 [25] of the same molecule?
A: 479 nM

Q: What about the CC50 at 48 h [26] of the same molecule?
A: 6.37 µM
